# Test results taken from patent US20200163984A1, “USE OF ISOVALERYL SPIRAMYCIN I, II AND/OR III IN MANUFACTURING MEDICAMENT FOR TREATING AND/OR PREVENTING TUMOR, AND MEDICAMENT” (SHENYANG FUYANG PHARMACEUTICAL TECHNOLOGY CO., LTD., priority 2017, published 2020).
# Tests used:
# [1] = test system: transplanted tumor of human glioma cell U251; test: U251 transplanted tumor in nude mice
# Experimental: (§1) U251 cells in a logarithmic growth phase were taken and subjected to a trypan blue exclusion experiment showing that the cell viability was more than 95%, then the cells were subjected to trypsinization, centrifugation, and supernatant removal. Then cell concentration was adjusted to 1×10^7/ml with matrigel, then each nude mouse was inoculated subcutaneously with 0.2 ml of cells at its right armpit and recorded as the first day of inoculation. When the tumor grows to be greater than or equal to 100 mm^3, the mice were randomly divided into 11 groups with 6 mice in each group: a model group, a cyclophosphamide group, isovaleryl spiramycin I groups with doses of 25, 50 and 100 mg/kg, isovaleryl spiramycin II groups with doses of 25, 50 and 100 mg/kg, and isovaleryl spiramycin III groups with doses of 25, 50 and 100 mg/kg. Each group was continuously administered intragastrically for 30 days with a dose of 20 ml/kg. The mice were sacrificed the next day after drug withdrawal and the indicators were tested. The long diameter and short diameter of the tumor, and the body weight of each mouse were recorded every 3 days from drug administration to nude mouse sacrifice.
# (§2) The body weight of the nude mice and the long diameter (a) and short diameter (b) of the transplanted tumor were measured every 3 days, and the tumor volume (v), relative tumor volume (RTV) and relative tumor proliferation rate (T/C) are calculated respectively according to the following formulas, wherein V=a×b^2/2; RTV=V/V0 (V0 is the tumor volume before administration, V is the tumor volume before sacrifice), and T/C (%)=treatment group RTV/model control group RTV×100%.
# (§3) Each mouse was weighed and sacrificed. After the tumor was completely stripped off from the body of the mouse, the non-tumor tissues such as blood stains and fat were removed to weigh the tumor and calculate the tumor growth inhibition rate. The average tumor weight of each group of mice is used as an indicator of efficacy. Tumor growth inhibition rate (%)=(1−the average tumor weight of the treatment group/the average tumor weight of the model group)×100%.
# [2] = test system: transplanted tumor of human renal cell adenocarcinoma cell 769-P; test: 769-P transplanted tumor in nude mice
# Experimental: as §1, with “Then” for “U251 cells in a logarithmic growth phase were taken and subjected to a trypan blue exclusion experiment showing that the cell viability was more than 95%, then the cells were subjected to trypsinization, centrifugation, and supernatant removal. Then”, “the” for “the body”
# as §2, §3
# [3] = Thymus index and spleen index of H22 liver cancer tumor-bearing mice
# Experimental: In the H22 liver cancer model, the mice inoculated with the tumor were randomly divided into groups with 10 mice in each group on the next day of inoculation. The groups included: a model control group, a positive drug cyclophosphamide control group (CTX, 26 mg/kg), isovaleryl spiramycin I groups with doses of 13, 26 and 52 mg/kg; isovaleryl spiramycin II groups with doses of 13, 26 and 52 mg/kg; isovaleryl spiramycin III groups with doses of 13, 26 and 52 mg/kg. Each group was continuously administered intragastrically for 7 days with a dose of 20 ml/kg.
# [4] = test system: human promyelocytic leukemia cell HL-60; conditions: HL-60, MTT, 48 h
# Experimental: The purpose of the assay is to evaluate the in vitro cell proliferation inhibition or cytotoxic activity of a tested sample.
# U937 and HL-60 were suspension cells, and cells in a logarithmic growth phase were selected and prepared into a 2×10^5/ml cell suspension by a RPMI 1640 culture medium containing 10% fetal bovine serum. And the cell suspension was inoculated in a 96-well culture plate, and each well was 50 μL and the 96-well culture plate was cultured at 37° C. and 5% CO2 for 24 hours. 50 μL of a culture medium containing different concentrations of the tested sample isovaleryl spiramycin I, isovaleryl spiramycin II, or isovaleryl spiramycin III was added in the experimental group, while a culture medium containing the same volume of solvent was added into the control group. Each group was set up with 3 parallel wells that were cultured at 37° C. and 5% CO2 for 48 h. And 10 μL of freshly prepared medium containing 5 mg/ml MTT was added into each well for continuous incubation for 4 hours at 37° C. The crystals were dissolved in 100 μL of a triple solution (SDS 10 g, 10 M HCl 0.1 mL, isobutanol 5 mL, diluted with distilled water to 100 mL), and incubated at 37° C. for 12 hours. The optical density value was measured at 492 nm with a microplate reader.
# The inhibition rate of the medicament on tumor cell growth is calculated according to the following formula:
# Tumor cell growth inhibition rate (%)=[A492 (negative control)−A492 (dosing group)]/A492 (negative control)×100%
# And the half-inhibitory concentration (IC50) of the sample is determined therefrom.
# [5] = U251, high dose (100 mg/kg in method) i.g. 30 days
# [6] = U251, low dose (25 mg/kg in method) i.g. 30 days
# [7] = U251, medium dose (50 mg/kg in method) i.g. 30 days
# [8] = 769-P, high dose (100 mg/kg in method) i.g. 30 days
# [9] = 769-P, low dose (25 mg/kg in method) i.g. 30 days
# [10] = 769-P, medium dose (50 mg/kg in method) i.g. 30 days
structure (smiles),measurement,setting,value
"O=P1(N(CCCl)CCCl)NCCCO1 (stereo not drawn) [Cyclophosphamide, cyclophosphamide, reference compound]",Inhibition Rate (%),"[1]; U251 nude mice, 30 mg/kg",69.31%
same,Relative Tumor Proliferation Rate (T/C),"[1]; U251 nude mice, 30 mg/kg",62.92%
same,Relative Tumor Volume (RTV),"[1]; U251 nude mice, 30 mg/kg",4.23 ± 0.95
same,Tumor Weight,"[1]; U251 nude mice, 30 mg/kg",0.42 ± 0.06 g
same,Body Weight (g) (d1),"[1]; U251 nude mice, 30 mg/kg, d1",20.72 ± 0.48 g
same,Tumor Volume (mm3) (d 1),"[1]; U251 nude mice, 30 mg/kg, d1",119.00 ± 11.13 mm3
same,Body Weight (g) (d30),"[1]; U251 nude mice, 30 mg/kg, d30",19.40 ± 1.40 g
same,Tumor Volume (mm3) (d30),"[1]; U251 nude mice, 30 mg/kg, d30",504.56 ± 93.91 mm3
same,Inhibition Rate (%),"[2]; 769-P nude mice, 30 mg/kg",70.52%
same,Relative Tumor Proliferation Rate (T/C),"[2]; 769-P nude mice, 30 mg/kg",35.34%
same,Relative Tumor Volume (RTV),"[2]; 769-P nude mice, 30 mg/kg",6.52 ± 0.90
same,Tumor Weight,"[2]; 769-P nude mice, 30 mg/kg",0.6 ± 0.03 g
same,Body Weight (g) (d1),"[2]; 769-P nude mice, 30 mg/kg, d1",21.61 ± 1.00 g
same,Tumor Volume (mm3) (d 1),"[2]; 769-P nude mice, 30 mg/kg, d1",107.92 ± 15.94 mm3
same,Body Weight (g) (d30),"[2]; 769-P nude mice, 30 mg/kg, d30",21.58 ± 0.81 g
same,Tumor Volume (mm3) (d30),"[2]; 769-P nude mice, 30 mg/kg, d30",704.00 ± 45.50 mm3
same,thymus index and spleen index compared with the control group,"[3]; H22 tumor-bearing mice, cyclophosphamide, P<0.01",significantly lower
same,Spleen Index (%),[3]; dose 26 mg/kg,0.38 ± 0.09 %
same,Thymus Index (%),[3]; dose 26 mg/kg,0.04 ± 0.02 %
"CO[C@@H]1[C@@H](O[C@@H]2O[C@H](C)[C@@H](O[C@H]3C[C@@](C)(O)[C@@H](OC(=O)CC(C)C)[C@H](C)O3)[C@H](N(C)C)[C@H]2O)[C@@H](CC=O)C[C@@H](C)[C@@H](O[C@H]2CC[C@H](N(C)C)[C@@H](C)O2)/C=C/C=C/C[C@@H](C)OC(=O)C[C@H]1O [Isovaleryl spiramycin I, isovaleryl spiramycin I]",Relative Tumor Proliferation Rate (T/C),[1]; [5],25.80%
same,tumor growth inhibition rate,[1]; [5],69.21%
same,Relative Tumor Proliferation Rate (T/C),[1]; [6],76.40%
same,tumor growth inhibition rate,[1]; [6],30.94%
same,tumor volume and relative tumor volume compared with the model group,"[1]; U251, low, medium and high doses, P<0.05",significantly lower
same,Relative Tumor Proliferation Rate (T/C),[1]; [7],44.54%
same,tumor growth inhibition rate,[1]; [7],44.53%
same,Inhibition Rate (%),"[1]; U251 nude mice, 25 mg/kg",30.94%
same,Relative Tumor Proliferation Rate (T/C),"[1]; U251 nude mice, 25 mg/kg",76.40%
same,Relative Tumor Volume (RTV),"[1]; U251 nude mice, 25 mg/kg",12.69 ± 1.08
same,Tumor Weight,"[1]; U251 nude mice, 25 mg/kg",0.96 ± 0.08 g
same,Tumor Volume (mm3) (d 1),"[1]; U251 nude mice, 25 mg/kg, d1",122.81 ± 10.35 mm3
same,Tumor Volume (mm3) (d30),"[1]; U251 nude mice, 25 mg/kg, d30",1550.33 ± 72.99 mm3
same,Inhibition Rate (%),"[1]; U251 nude mice, 50 mg/kg",44.53%
same,Relative Tumor Proliferation Rate (T/C),"[1]; U251 nude mice, 50 mg/kg",44.54%
same,Relative Tumor Volume (RTV),"[1]; U251 nude mice, 50 mg/kg",10.67 ± 1.09
same,Tumor Weight,"[1]; U251 nude mice, 50 mg/kg",0.77 ± 0.09 g
same,Tumor Volume (mm3) (d 1),"[1]; U251 nude mice, 50 mg/kg, d1",124.39 ± 10.31 mm3
same,Tumor Volume (mm3) (d30),"[1]; U251 nude mice, 50 mg/kg, d30",930.42 ± 204.72 mm3
same,Inhibition Rate (%),"[1]; U251 nude mice, 100 mg/kg",69.21%
same,Relative Tumor Proliferation Rate (T/C),"[1]; U251 nude mice, 100 mg/kg",25.80%
same,Relative Tumor Volume (RTV),"[1]; U251 nude mice, 100 mg/kg",10.05 ± 0.71
same,Tumor Weight,"[1]; U251 nude mice, 100 mg/kg",0.43 ± 0.01 g
same,Tumor Volume (mm3) (d 1),"[1]; U251 nude mice, 100 mg/kg, d1",124.88 ± 6.57 mm3
same,Tumor Volume (mm3) (d30),"[1]; U251 nude mice, 100 mg/kg, d30",537.02 ± 93.66 mm3
same,mouse weight compared with the model group,"[1]; mouse, in vivo",no significant changes
same,Body Weight (g) (d1),"[1]; mouse, in vivo, 25 mg/kg",21.03 ± 0.55 g
same,Body Weight (g) (d30),"[1]; mouse, in vivo, 25 mg/kg",21.09 ± 0.53 g
same,Body Weight (g) (d1),"[1]; mouse, in vivo, 50 mg/kg",20.78 ± 0.66 g
same,Body Weight (g) (d30),"[1]; mouse, in vivo, 50 mg/kg",21.08 ± 0.54 g
same,Body Weight (g) (d1),"[1]; mouse, in vivo, 100 mg/kg",21.10 ± 0.35 g
same,Body Weight (g) (d30),"[1]; mouse, in vivo, 100 mg/kg",20.86 ± 0.66 g
same,Inhibition Rate (%),"[2]; 769-P nude mice, 25 mg/kg",33.68%
same,Relative Tumor Proliferation Rate (T/C),"[2]; 769-P nude mice, 25 mg/kg",75.78%
same,Relative Tumor Volume (RTV),"[2]; 769-P nude mice, 25 mg/kg",13.99 ± 3.52
same,Tumor Weight,"[2]; 769-P nude mice, 25 mg/kg",1.37 ± 0.55 g
same,Tumor Volume (mm3) (d 1),"[2]; 769-P nude mice, 25 mg/kg, d1",106.47 ± 6.86 mm3
same,Tumor Volume (mm3) (d30),"[2]; 769-P nude mice, 25 mg/kg, d30",1489.03 ± 450.17 mm3
same,Inhibition Rate (%),"[2]; 769-P nude mice, 50 mg/kg",47.33%
same,Relative Tumor Proliferation Rate (T/C),"[2]; 769-P nude mice, 50 mg/kg",57.12%
same,Relative Tumor Volume (RTV),"[2]; 769-P nude mice, 50 mg/kg",10.54 ± 2.65
same,Tumor Weight,"[2]; 769-P nude mice, 50 mg/kg",1.09 ± 0.48 g
same,Tumor Volume (mm3) (d 1),"[2]; 769-P nude mice, 50 mg/kg, d1",96.82 ± 8.51 mm3
same,Tumor Volume (mm3) (d30),"[2]; 769-P nude mice, 50 mg/kg, d30",1020.75 ± 282.92 mm3
same,Inhibition Rate (%),"[2]; 769-P nude mice, 100 mg/kg",68.82%
same,Relative Tumor Proliferation Rate (T/C),"[2]; 769-P nude mice, 100 mg/kg",36.88%
same,Relative Tumor Volume (RTV),"[2]; 769-P nude mice, 100 mg/kg",6.81 ± 0.30
same,Tumor Weight,"[2]; 769-P nude mice, 100 mg/kg",0.64 ± 0.01 g
same,Tumor Volume (mm3) (d 1),"[2]; 769-P nude mice, 100 mg/kg, d1",103.26 ± 9.71 mm3
same,Tumor Volume (mm3) (d30),"[2]; 769-P nude mice, 100 mg/kg, d30",702.74 ± 37.66 mm3
same,Relative Tumor Proliferation Rate (T/C),[2]; [8],36.88%
same,tumor growth inhibition rate,[2]; [8],68.82%
same,Relative Tumor Proliferation Rate (T/C),[2]; [9],75.78%
same,tumor growth inhibition rate,[2]; [9],33.68%
same,tumor volume and relative tumor volume compared with the model group,"[2]; 769-P, low, medium and high doses, P<0.05",significantly lower
same,Relative Tumor Proliferation Rate (T/C),[2]; [10],57.12%
same,tumor growth inhibition rate,[2]; [10],47.33%
same,mouse weight compared with the model group,"[2]; mouse, in vivo",no significant changes
same,Body Weight (g) (d1),"[2]; mouse, in vivo, 25 mg/kg",21.44 ± 1.45 g
same,Body Weight (g) (d30),"[2]; mouse, in vivo, 25 mg/kg",21.87 ± 0.89 g
same,Body Weight (g) (d1),"[2]; mouse, in vivo, 50 mg/kg",21.79 ± 1.37 g
same,Body Weight (g) (d30),"[2]; mouse, in vivo, 50 mg/kg",22.00 ± 0.94 g
same,Body Weight (g) (d1),"[2]; mouse, in vivo, 100 mg/kg",21.39 ± 1.24 g
same,Body Weight (g) (d30),"[2]; mouse, in vivo, 100 mg/kg",21.88 ± 0.54 g
same,Spleen Index (%),[3]; dose 13 mg/kg,0.72 ± 0.07%
same,Thymus Index (%),[3]; dose 13 mg/kg,0.15 ± 0.07%
same,Spleen Index (%),[3]; dose 26 mg/kg,0.60 ± 0.15%
same,Thymus Index (%),[3]; dose 26 mg/kg,0.14 ± 0.01%
same,Spleen Index (%),[3]; dose 52 mg/kg,0.86 ± 0.25 %
same,Thymus Index (%),[3]; dose 52 mg/kg,0.12 ± 0.04%
same,IC50,[4],16.52 ± 1.26 µg/mL
